Laboratory results as given in patent publication US20260334439A1, “BCAT2 INHIBITORS” (Agios Pharmaceuticals, Inc., priority 2023, published 2026).

What was measured:
BCAT2 [1] = target: T1, BCAT2 (Homo sapiens, UniProt O15382); test: BCAT2 cell inhibition using engineered A549 cells (MUT KO, BCAT1 KO; 13C6-KMV formation by LC-MS/MS); assay type: cell-based; parameters: expressed endogenous BCAT2; endogenous in cells; host or cells: A549 cells, MUT knockout and BCAT1 knockout
T1 sequence (O15382 28-392): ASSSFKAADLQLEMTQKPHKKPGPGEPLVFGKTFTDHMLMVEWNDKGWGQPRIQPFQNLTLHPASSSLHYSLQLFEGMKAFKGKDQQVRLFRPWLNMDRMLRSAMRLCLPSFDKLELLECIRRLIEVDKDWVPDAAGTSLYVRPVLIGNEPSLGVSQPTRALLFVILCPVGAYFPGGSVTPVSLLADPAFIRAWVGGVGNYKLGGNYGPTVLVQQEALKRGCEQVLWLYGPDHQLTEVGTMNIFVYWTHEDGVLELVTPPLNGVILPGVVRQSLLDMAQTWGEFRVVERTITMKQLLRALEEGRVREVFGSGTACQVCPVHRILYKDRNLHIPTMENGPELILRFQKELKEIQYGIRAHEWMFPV
In short: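 Medium 13C6-KMV formation is read by LC-MS/MS after PFBHA derivatization with d8-KMV internal standard. Cells are CRISPR MUT/BCAT1 double-knockout A549 expressing endogenous BCAT2, given compound 15 min before labelled isoleucine (800 uM, added 1:1) for 24 h. CTG viability run in parallel; replicates averaged.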

BCAT2 [2] = target: T1, BCAT2; test: BCAT2 in vitro enzyme inhibition assay (hBCAT2, glutamate dehydrogenase/diaphorase/resazurin coupled fluorescence read); assay type: biochemical; conditions: hBCAT2, 1 h preincubation at 25° C., one hour reaction; average where tested multiple times
In short: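 hBCAT2 (0.33 μg/mL in mix) preincubated 1 h at 25 °C with compound (top 100 μM, 3-fold, 10 points) in Tris pH 8.0/NaCl/BSA; substrate mix added (L-leucine, α-ketoglutarate, GDH, NAD, diaphorase, resazurin), quenched with SDS after 1 h, fluorescence Ex 540/Em 590; duplicates, repeat tests averaged.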

Structure (SMILES)	IC50 (BCAT2 [1])	IC50 (BCAT2 [2])	IC50 (BCAT2 [1]; read-out: BCAT2 Cell Inhibition (IC50), engineered A549 cells, 24 hours, 13C6-KMV in media, average where tested multiple times)
CC(C)Cc1nc2cnc(-c3nc[nH]n3)cc2n1[C@@H]1CCC[C@H](NC(=O)c2cc(Cl)ccc2OCCO)C1 [Example 78, 5-chloro-2-(2-hydroxyethoxy)-N-((1S,3R)-3-(2-isobutyl-6-(1H-1,2,4-triazol-3-yl)-1H-imidazo[4,5-c]pyridin-1-yl)cyclohexyl)benzamide]	0.1 to 0.5 µM	< 0.1 µM	–
O=C(N[C@H]1CCC[C@@H](n2c(-c3ncccc3F)nc3cnc(-c4nc[nH]n4)cc32)C1)c1cc(F)ccc1F [Example 80, 2,5-difluoro-N-((1S,3R)-3-(2-(3-fluoropyridin-2-yl)-6-(1H-1,2,4-triazol-3-yl)-1H-imidazo[4,5-c]pyridin-1-yl)cyclohexyl)benzamide]	0.1 to 0.5 µM	< 0.1 µM	–
N#Cc1ccccc1-c1nc2cnc(-c3nc[nH]n3)cc2n1[C@@H]1CCC[C@H](NC(=O)c2cc(F)ccc2F)C1 [Example 81, N-((1S,3R)-3-(2-(2-cyanophenyl)-6-(1H-1,2,4-triazol-3-yl)-1H-imidazo[4,5-c]pyridin-1-yl)cyclohexyl)-2,5-difluorobenzamide]	0.1 to 0.5 µM	< 0.1 µM	–
O=C(N[C@H]1CCC[C@@H](n2c(-c3ccccc3F)nc3cnc(-c4nc[nH]n4)cc32)C1)c1cc(Cl)ccc1OCCCO [Example 82, 5-chloro-N-((1S,3R)-3-(2-(2-fluorophenyl)-6-(1H-1,2,4-triazol-3-yl)-1H-imidazo[4,5-c]pyridin-1-yl)cyclohexyl)-2-(3-hydroxypropoxy)benzamide]	< 0.1 µM	< 0.1 µM	–
O=C(N[C@H]1CCC[C@@H](n2c(-c3ccccc3F)nc3cnc(-c4nc[nH]n4)cc32)C1)c1cc(Cl)ccc1OC1CCOC1 (stereo partly drawn) [Example 83, 5-chloro-N-((1S,3R)-3-(2-(2-fluorophenyl)-6-(1H-1,2,4-triazol-3-yl)-1H-imidazo[4,5-c]pyridin-1-yl)cyclohexyl)-2-((tetrahydrofuran-3-yl)oxy)benzamide]	< 0.1 µM	< 0.1 µM	–
O=C(N[C@H]1CCC[C@@H](n2c(-c3ccccc3OCCO)nc3cnc(-c4nc[nH]n4)cc32)C1)c1cc(F)ccc1F [Example 85, 2,5-difluoro-N-((1S,3R)-3-(2-(2-(2-hydroxyethoxy)phenyl)-6-(1H-1,2,4-triazol-3-yl)-1H-imidazo[4,5-c]pyridin-1-yl)cyclohexyl)benzamide]	0.1 to 0.5 µM	< 0.1 µM	–
O=C(N[C@H]1CCC[C@@H](n2c(-c3ccccc3OCCO)nc3cnc(-c4nc[nH]n4)cc32)C1)c1cc(Cl)ccc1F [Example 86, 5-chloro-2-fluoro-N-((1S,3R)-3-(2-(2-(2-hydroxyethoxy)phenyl)-6-(1H-1,2,4-triazol-3-yl)-1H-imidazo[4,5-c]pyridin-1-yl)cyclohexyl)benzamide]	0.1 to 0.5 µM	< 0.1 µM	–
CC(Oc1ccc(Cl)cc1C(=O)N[C@H]1CCC[C@@H](n2c(-c3ccccc3F)nc3cnc(-c4nc[nH]n4)cc32)C1)C(F)(F)F (stereo partly drawn) [Example 88, 5-chloro-N-((1S,3R)-3-(2-(2-fluorophenyl)-6-(1H-1,2,4-triazol-3-yl)-1H-imidazo[4,5-c]pyridin-1-yl)cyclohexyl)-2-((1,1,1-trifluoropropan-2-yl)oxy)benzamide]	0.1 to 0.5 µM	< 0.1 µM	–
O=C(N[C@H]1CCC[C@@H](n2c(-c3ccccc3F)nc3cnc(-c4nc[nH]n4)cc32)C1)c1cc(Cl)ccc1OC(CO)CO [Example 90, 5-chloro-2-((1,3-dihydroxypropan-2-yl)oxy)-N-((1S,3R)-3-(2-(2-fluorophenyl)-6-(1H-1,2,4-triazol-3-yl)-1H-imidazo[4,5-c]pyridin-1-yl)cyclohexyl)benzamide]	0.1 to 0.5 µM	< 0.1 µM	–
Cc1coc(-c2cc3c(cn2)nc(-c2ccccc2C#N)n3[C@@H]2CCC[C@H](NC(=O)c3cc(F)ccc3F)C2)n1 [Example 93, N-((1S,3R)-3-(2-(2-cyanophenyl)-6-(4-methyloxazol-2-yl)-1H-imidazo[4,5-c]pyridin-1-yl)cyclohexyl)-2,5-difluorobenzamide]	0.1 to 0.5 µM	< 0.1 µM	–
N#Cc1ccc(F)cc1C(=O)N[C@H]1CCC[C@@H](n2c(-c3ccccc3F)nc3cnc(-c4nc[nH]n4)cc32)C1 [Example 98, 2-cyano-5-fluoro-N-((1S,3R)-3-(2-(2-fluorophenyl)-6-(4H-1,2,4-triazol-3-yl)-1H-imidazo[4,5-c]pyridin-1-yl)cyclohexyl)benzamide]	< 0.1 µM	< 0.1 µM	–
COc1ccc(Cl)cc1C(=O)N[C@H]1CCC[C@@H](n2c(-c3ccccc3F)nc3cnc(-c4nc[nH]n4)cc32)[C@@H]1O [Example 102, 5-chloro-N-((1S,2R,3R)-3-(2-(2-fluorophenyl)-6-(1H-1,2,4-triazol-3-yl)-1H-imidazo[4,5-c]pyridin-1-yl)-2-hydroxycyclohexyl)-2-methoxybenzamide]	< 0.1 µM	< 0.1 µM	–
COc1ccc(Cl)cc1C(=O)N[C@@H]1CCCC[C@H](n2c(-c3ccccc3F)nc3cnc(-c4nc[nH]n4)cc32)[C@H]1O [Example 104, 5-chloro-N-((1R,2S,3S)-3-(2-(2-fluorophenyl)-6-(1H-1,2,4-triazol-3-yl)-1H-imidazo[4,5-c]pyridin-1-yl)-2-hydroxycycloheptyl)-2-methoxybenzamide]	–	0.5 to 1 µM	> 1 µM
COc1ccc(Cl)cc1C(=O)N[C@H]1CCCC[C@@H](n2c(-c3ccccc3F)nc3cnc(-c4nc[nH]n4)cc32)[C@@H]1O [Example 105, 5-chloro-N-((1S,2R,3R)-3-(2-(2-fluorophenyl)-6-(1H-1,2,4-triazol-3-yl)-1H-imidazo[4,5-c]pyridin-1-yl)-2-hydroxycycloheptyl)-2-methoxybenzamide]	< 0.1 µM	< 0.1 µM	–
COc1ccc(Cl)cc1C(=O)N[C@H]1C[C@H](OC)C[C@@H](n2c(-c3ccccc3F)nc3cnc(-c4nc[nH]n4)cc32)C1 [Example 106, 5-chloro-N-((1R,3S,5S)-3-(2-(2-fluorophenyl)-6-(1H-1,2,4-triazol-3-yl)-1H-imidazo[4,5-c]pyridin-1-yl)-5-methoxycyclohexyl)-2-methoxybenzamide]	< 0.1 µM	< 0.1 µM	–

The remaining lines, values ahead:

IC50 (BCAT2 [1])	IC50 (BCAT2 [2])	IC50 (BCAT2 [1]; read-out: BCAT2 Cell Inhibition (IC50), engineered A549 cells, 24 hours, 13C6-KMV in media, average where tested multiple times)	Structure (SMILES)
< 0.1 µM	< 0.1 µM	–	O=C(N[C@H]1CCC[C@@H](n2c(-c3ccccc3F)nc3cnc(-n4nccn4)cc32)C1)c1cc(Cl)ccc1OCCO [Example 68, 5-chloro-N-((1S,3R)-3-(2-(2-fluorophenyl)-6-(2H-1,2,3-triazol-2-yl)-1H-imidazo[4,5-c]pyridin-1-yl)cyclohexyl)-2-(2-hydroxyethoxy)benzamide]
< 0.1 µM	< 0.1 µM	–	O=C(N[C@H]1CCC[C@@H](n2c(-c3c(O)cccc3F)nc3cnc(-c4nc[nH]n4)cc32)C1)c1cc(Cl)ccn1 [Example 70, 4-chloro-N-((1S,3R)-3-(2-(2-fluoro-6-hydroxyphenyl)-6-(1H-1,2,4-triazol-3-yl)-1H-imidazo[4,5-c]pyridin-1-yl)cyclohexyl)picolinamide]
< 0.1 µM	< 0.1 µM	–	CC(C)(O)COc1ccc(Cl)cc1C(=O)N[C@H]1CCC[C@@H](n2c(-c3ccccc3F)nc3cnc(-n4nccn4)cc32)C1 [Example 71, 5-chloro-N-((1S,3R)-3-(2-(2-fluorophenyl)-6-(2H-1,2,3-triazol-2-yl)-1H-imidazo[4,5-c]pyridin-1-yl)cyclohexyl)-2-(2-hydroxy-2-methylpropoxy)benzamide]
< 0.1 µM	< 0.1 µM	–	COCCOc1ccc(Cl)cc1C(=O)N[C@H]1CCC[C@@H](n2c(-c3ccccc3F)nc3cnc(-n4nccn4)cc32)C1 [Example 72, 5-chloro-N-((1S,3R)-3-(2-(2-fluorophenyl)-6-(2H-1,2,3-triazol-2-yl)-1H-imidazo[4,5-c]pyridin-1-yl)cyclohexyl)-2-(2-methoxyethoxy)benzamide]
0.1 to 0.5 µM	< 0.1 µM	–	O=C(N[C@H]1CCC[C@@H](n2c(-c3ccccc3F)nc3cnc(-c4nc[nH]n4)cc32)C1)c1c(F)cccc1F [Example 74, 2,6-difluoro-N-((1S,3R)-3-(2-(2-fluorophenyl)-6-(1H-1,2,4-triazol-3-yl)-1H-imidazo[4,5-c]pyridin-1-yl)cyclohexyl)benzamide]
< 0.1 µM	< 0.1 µM	–	O=C(N[C@H]1CCC[C@@H](n2c(-c3ccccc3F)nc3cnc(-c4nc[nH]n4)cc32)C1)c1ccccc1F [Example 76, 2-fluoro-N-((1S,3R)-3-(2-(2-fluorophenyl)-6-(1H-1,2,4-triazol-3-yl)-1H-imidazo[4,5-c]pyridin-1-yl)cyclohexyl)benzamide]
0.1 to 0.5 µM	< 0.1 µM	–	N#Cc1ccc(F)c(C(=O)N[C@H]2CCC[C@@H](n3c(-c4ccccc4F)nc4cnc(-c5nc[nH]n5)cc43)C2)c1 [Example 77, 5-cyano-2-fluoro-N-((1S,3R)-3-(2-(2-fluorophenyl)-6-(1H-1,2,4-triazol-3-yl)-1H-imidazo[4,5-c]pyridin-1-yl)cyclohexyl)benzamide]
